Results reported in patent US20080207683A1, “BIARYL-S[…]-PYRAZOLO-PYRIDINE MODULATORS OF CATHEPSIN S” (priority 2007, published 2008).
pKi: −log10 of the molar value.

The compounds below were run against T1, Human CatS (Homo sapiens, UniProt P25774) (assay: CatS inhibition of hydrolysis of fluorescent substrate Z-Val-Val-Arg-AFC). Conditions: apparent Ki, Morrison equation fit of initial rates; 10 μM Z-Val-Val-Arg-AFC, pH 5.0, 1.5 nM CatS; read-out: CatS Ki^app.
T1 construct: made in house; host or cells: Sf9 insect cells (baculovirus vector pFB+HT)
Format: biochemical
Procedure: Human CatS was cloned into pFB+HT (from Stratagene clone), expressed in Sf9 cells, and purified over a Ni column. Fractions were concentrated and activated at pH 4.0 for 6 hr and then purified over a thiopropylsepharose column and eluted with 1×TBS, 500 mM NaCl, 1 mM EDTA, 25 mM DTT pH 7.6. Glycerol (50%) was added in a 1:1 (vol/vol) ratio (25% glycerol final) and protein was stored at −80° C. in 5 μL aliquots. […] The increase in fluorescence over time was monitored using λexcitation=400 nm and λemission=505 nm.
In equation 1, v is the initial rate measured in the presence of [I]0, the inhibitor concentration, using an enzyme concentration [E]0. v0 is the initial rate measured in the absence of inhibitor.

T1 sequence (P25774 115-331): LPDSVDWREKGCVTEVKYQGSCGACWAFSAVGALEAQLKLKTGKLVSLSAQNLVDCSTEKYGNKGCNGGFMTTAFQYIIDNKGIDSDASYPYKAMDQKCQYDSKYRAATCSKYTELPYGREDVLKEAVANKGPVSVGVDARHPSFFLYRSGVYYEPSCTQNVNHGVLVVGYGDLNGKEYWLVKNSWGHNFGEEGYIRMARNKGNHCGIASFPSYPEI

Compound	pKi
CS(=O)(=O)N1CCc2c(c(-c3ccc(Cl)c(-c4cccc(C(=O)NCc5ncco5)c4)c3)nn2CCCN2CCC(O)C2)C1 (stereo not shown) [Example 29, 2′-Chloro-5′-{1-[3-(3-hydroxy-pyrrolidin-1-yl)-propyl]-5-methanesulfonyl-4,5,6,7-tetrahydro-1H-pyrazolo[4,3-c]pyridin-3-yl}-biphenyl-3-carboxylic acid (oxazol-2-ylmethyl)-amide]	6.32
C[C@@H](CN1CCc2cc(F)ccc21)NC(=O)c1cccc(-c2cc(-c3nn(CCCN4CCCC4)c4c3CN(S(C)(=O)=O)CC4)ccc2Cl)c1 [Example 9, (S)-2′-Chloro-5′-[5-methanesulfonyl-1-(3-pyrrolidin-1-yl-propyl)-4,5,6,7-tetrahydro-1H-pyrazolo[4,3-c]pyridin-3-yl]-biphenyl-3-carboxylic acid [2-(5-fluoro-2,3-dihydro-indol-1-yl)-1-methyl-ethyl]-amide]	6.86
COc1ccc(NCCNC(=O)c2cccc(-c3cc(-c4nn(CCCN5CCC(O)C5)c5c4CN(S(C)(=O)=O)CC5)ccc3Cl)c2)cc1 (stereo not shown) [Example 28, 2′-Chloro-5′-{1-[3-(3-hydroxy-pyrrolidin-1-yl)-propyl]-5-methanesulfonyl-4,5,6,7-tetrahydro-1H-pyrazolo[4,3-c]pyridin-3-yl}-biphenyl-3-carboxylic acid [2-(4-methoxy-phenylamino)-ethyl]-amide]	7.71
CS(=O)(=O)N1CCc2c(c(-c3ccc(Cl)c(-c4cccc(C(=O)NCCNc5cccnc5)c4)c3)nn2CCCN2CCCC2)C1 [Example 7, 2′-Chloro-5′-[5-methanesulfonyl-1-(3-pyrrolidin-1-yl-propyl)-4,5,6,7-tetrahydro-1H-pyrazolo[4,3-c]pyridin-3-yl]-biphenyl-3-carboxylic acid [2-(pyridin-3-ylamino)-ethyl]-amide]	6.06
